Measurements from the supplement of paper PMC11061612.

Tests used:
Experiment in all cases: combination Emax (second highest fraction inhibited in the dose matrix, 72 h); higher = more inhibition; extreme values may be limits of the assay
A498 (Kidney Carcinoma) = system: A498 (Kidney Carcinoma)
How it was run: (§1)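 Cell lines grown in DMEM/F12 or RPMI with 10% FBS were plated in 1536-well plates and held 24 hours at 37°C, 5% CO2 before 72 hours of exposure to two-drug dose matrices, with DMSO typically at 0.2%. CellTiter-Glo 2.0 luminescence gave viability, which was converted to inhibition. Vehicle wells were set to 0 and blank wells to 1. Combination Emax is the second-highest inhibition in the matrix, and Bliss excess is the observed combination effect minus the expected EA + EB − EA·EB, where EA and EB are the single-agent effects.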

ARH-77 (Non-Cancerous) = system: ARH-77 (Non-Cancerous)
How it was run: as §1

[1] = system: BICR22 (Oral Cavity Carcinoma)
How it was run: as §1

CAS-1 (Glioblastoma) = system: CAS-1 (Glioblastoma)
How it was run: as §1

[2] = system: COLO-320-HSR (Colorectal Carcinoma)
How it was run: as §1

[3] = system: COR-L311 (Small Cell Lung Carcinoma)
How it was run: as §1

[4] = system: ECC10 (Gastric Carcinoma)
How it was run: as §1

Hs-445 (Non-Cancerous) = system: Hs-445 (Non-Cancerous)
How it was run: as §1

IGR-37 (Melanoma) = system: IGR-37 (Melanoma)
How it was run: as §1

LN-405 (Glioblastoma) = system: LN-405 (Glioblastoma)
How it was run: as §1

[5] = system: NCI-H1666 (Lung Adenocarcinoma)
How it was run: as §1

[6] = system: NCI-H1693 (Lung Adenocarcinoma)
How it was run: as §1

[7] = system: NCI-H2141 (Small Cell Lung Carcinoma)
How it was run: as §1

NY (Osteosarcoma) = system: NY (Osteosarcoma)
How it was run: as §1

[8] = system: OS-RC-2 (Kidney Carcinoma)
How it was run: as §1

[9] = system: PANC-10-05 (Pancreatic Carcinoma)
How it was run: as §1

[10] = system: SISO (Cervical Carcinoma)
How it was run: as §1

[11] = system: SK-MES-1 (Squamous Cell Lung Carcinoma)
How it was run: as §1

[12] = system: SK-MG-1 (Low Grade Glioma)
How it was run: as §1

U-2-OS (Osteosarcoma) = system: U-2-OS (Osteosarcoma)
How it was run: as §1

Row | Compound | combination Emax (A498 (Kidney Carcinoma)) | combination Emax (ARH-77 (Non-Cancerous)) | combination Emax [1] | combination Emax (CAS-1 (Glioblastoma)) | combination Emax [2] | combination Emax [3] | combination Emax [4] | combination Emax (Hs-445 (Non-Cancerous)) | combination Emax (IGR-37 (Melanoma)) | combination Emax (LN-405 (Glioblastoma)) | combination Emax [5] | combination Emax [6] | combination Emax [7] | combination Emax (NY (Osteosarcoma)) | combination Emax [8] | combination Emax [9] | combination Emax [10] | combination Emax [11] | combination Emax [12] | combination Emax (U-2-OS (Osteosarcoma))
1 | COc1cc2c(cc1OCCCCCOc1cc3c(cc1OC)C(=O)N1C=C(C)C[C@H]1C=N3)N=C[C@@H]1CC(C)=CN1C2=O [SG3199] + O=C(c1cc(Cc2n[nH]c(=O)c3ccccc23)ccc1F)N1CCN(C(=O)C2CC2)CC1 [Olaparib] (first compound max 0.001 µM, 7x7, partner max 10 µM) | 0.173 | 0.221 | 0.124 | 0.235 | 0.061 | 0.515 | 0.102 | 0.086 | 0.0632 | 0.301 | 0.0849 | 0.086 | 0.197 | 0.0994 | 0.0448 | 0.116 | 0.226 | 0.103 | 0.168 | 0.0914
2 | CCc1c2c(nc3ccc(O)cc13)-c1cc3c(c(=O)n1C2)COC(=O)[C@]3(O)CC [SN-38] + CN(C)CCCOc1ccc(-c2ccc3ncc4c(c3c2)n(C2CCOCC2)c(=O)n4C)cn1 [AZD0156] (first compound max 0.3 µM, 7x7, partner max 1 µM) | 0.5 | 0.992 | 0.907 | 0.494 | 0.284 | 0.821 | 0.945 | 0.993 | 0.826 | 0.259 | 0.626 | 0.474 | 0.451 | 0.855 | 0.443 | 0.73 | 0.928 | 0.804 | 0.833 | 0.0889
3 | C[C@@H](c1ccc2nccn2c1)n1nnc2ncc(-c3cnn(C)c3)nc21 [Savolitinib] + CC1(C)CCC(CN2CCN(c3ccc(C(=O)NS(=O)(=O)c4ccc(NCC5CCOCC5)c([N+](=O)[O-])c4)c(Oc4cnc5[nH]ccc5c4)c3)CC2)=C(c2ccc(Cl)cc2)C1 [Venetoclax] (first compound max 1 µM, 7x7, partner max 1 µM) | 0.172 | 0.251 | 0.108 | 0.212 | 0.213 | 0.525 | 0.5 | 0.292 | 0.3 | 0.173 | 0.152 | 0.0814 | 0.198 | 0.246 | 0.145 | 0.117 | 0.0509 | 0.0772 | 0.11 | 0.125
4 | C[C@@H](c1ccc2nccn2c1)n1nnc2ncc(-c3cnn(C)c3)nc21 [Savolitinib] + Cc1c2c(nn1C)CSCc1cc(n(C)n1)CSc1cc(c3ccccc3c1)OCCCc1c(C(=O)O)n(C)c3c-2c(Cl)ccc13 [AZD5991] (first compound max 1 µM, 7x7, partner max 1 µM) | 0.212 | 0.245 | 0.269 | 0.194 | 0.779 | 0.246 | 0.503 | 0.211 | 0.279 | 0.256 | 0.178 | 0.108 | 0.234 | 0.442 | 0.19 | 0.153 | 0.0507 | 0.228 | 0.124 | 0.18
5 | Cn1cnc2c(F)c(Nc3ccc(Br)cc3Cl)c(C(=O)NOCCO)cc21 [Selumetinib] + C=CCn1c(=O)c2cnc(Nc3ccc(N4CCN(C)CC4)cc3)nc2n1-c1cccc(C(C)(C)O)n1 [AZD1775] (first compound max 10 µM, partner max 1 µM) | 0.408 | 0.979 | 0.523 | 0.39 | 0.589 | 0.504 | 0.774 | 0.689 | 0.878 | 0.148 | 0.538 | 0.428 | 0.547 | 0.527 | 0.244 | 0.546 | 0.539 | 0.631 | 0.449 | 0.699
6 | Cn1cnc2c(F)c(Nc3ccc(Br)cc3Cl)c(C(=O)NOCCO)cc21 [Selumetinib] + CC(C)n1c(=O)n(C)c2cnc3cc(F)c(-c4ccc(OCCCN5CCCCC5)nc4)cc3c21 [AZD1390] (first compound max 10 µM, 7x7, partner max 0.3 µM) | 0.318 | 0.318 | 0.334 | 0.241 | 0.181 | 0.109 | 0.202 | 0.288 | 0.76 | 0.129 | 0.529 | 0.204 | 0.0858 | 0.181 | 0.158 | 0.402 | 0.0869 | 0.464 | 0.185 | 0.577
7 | Cn1cnc2c(F)c(Nc3ccc(Br)cc3Cl)c(C(=O)NOCCO)cc21 [Selumetinib] + CCN(CCO)CCCOc1ccc2c(Nc3cc(CC(=O)Nc4cccc(F)c4)[nH]n3)ncnc2c1 [AZD2811] (first compound max 10 µM, 7x7, partner max 1 µM) | 0.383 | 0.369 | 0.538 | 0.277 | 0.249 | 0.733 | 0.841 | 0.414 | 0.774 | 0.242 | 0.506 | 0.286 | 0.167 | 0.247 | 0.225 | 0.464 | 0.338 | 0.511 | 0.288 | 0.661
8 | Cn1cnc2c(F)c(Nc3ccc(Br)cc3Cl)c(C(=O)NOCCO)cc21 [Selumetinib] + C[C@@H]1COCCN1C2=NC(=NC(=C2)C3(CC3)[S@](=N)(=O)C)C4=C5C=CNC5=NC=C4 [AZD6738] (first compound max 10 µM, 7x7, partner max 10 µM) | 0.57 | 0.946 | 0.722 | 0.545 | 0.371 | 0.32 | 0.443 | 0.755 | 0.864 | 0.405 | 0.516 | 0.364 | 0.409 | 0.617 | 0.304 | 0.613 | 0.43 | 0.687 | 0.387 | 0.624
9 | CC(=O)Nc1cccc(-n2c(=O)n(C3CC3)c(=O)c3c(Nc4ccc(I)cc4F)n(C)c(=O)c(C)c32)c1 [Trametinib] + Cc1nc(-c2cn3c(n2)-c2ccc(-c4cnn(C(C)(C)C(N)=O)c4)cc2OCC3)n(C(C)C)n1 [Taselisib] (first compound max 1 µM, 7x7, partner max 10 µM) | 0.861 | 0.776 | 1 | 0.957 | 0.338 | 0.751 | 0.989 | 0.611 | 1 | 0.76 | 0.988 | 0.469 | 0.317 | 0.747 | 0.627 | 0.838 | 0.447 | 1 | 0.85 | 1
10 | CC1(C)CCC(CN2CCN(c3ccc(C(=O)NS(=O)(=O)c4ccc(NCC5CCOCC5)c([N+](=O)[O-])c4)c(Oc4cnc5[nH]ccc5c4)c3)CC2)=C(c2ccc(Cl)cc2)C1 [Venetoclax] + C1CN(CCC1(C(=O)N[C@@H](CCO)C2=CC=C(C=C2)Cl)N)C3=NC=NC4=C3C=CN4 [Capivasertib] (first compound max 1 µM, 7x7, partner max 3 µM) | 0.537 | 0.7 | 0.272 | 0.407 | 0.0935 | 0.842 | 0.959 | 0.751 | 0.556 | 0.429 | 0.287 | 0.197 | 0.249 | 0.583 | 0.354 | 0.273 | 0.106 | 0.202 | 0.437 | 0.263
11 | CC1(C)CCC(CN2CCN(c3ccc(C(=O)NS(=O)(=O)c4ccc(NCC5CCOCC5)c([N+](=O)[O-])c4)c(Oc4cnc5[nH]ccc5c4)c3)CC2)=C(c2ccc(Cl)cc2)C1 [Venetoclax] + C=CCn1c(=O)c2cnc(Nc3ccc(N4CCN(C)CC4)cc3)nc2n1-c1cccc(C(C)(C)O)n1 [AZD1775] (first compound max 1 µM, partner max 1 µM) | 0.452 | 0.997 | 0.782 | 0.615 | 0.801 | 0.808 | 0.989 | 0.99 | 0.852 | 0.326 | 0.343 | 0.308 | 0.792 | 0.741 | 0.326 | 0.486 | 0.694 | 0.565 | 0.625 | 0.679
12 | CC1(C)CCC(CN2CCN(c3ccc(C(=O)NS(=O)(=O)c4ccc(NCC5CCOCC5)c([N+](=O)[O-])c4)c(Oc4cnc5[nH]ccc5c4)c3)CC2)=C(c2ccc(Cl)cc2)C1 [Venetoclax] + CCN(CCO)CCCOc1ccc2c(Nc3cc(CC(=O)Nc4cccc(F)c4)[nH]n3)ncnc2c1 [AZD2811] (first compound max 1 µM, 7x7, partner max 1 µM) | 0.216 | 0.703 | 0.492 | 0.271 | 0.156 | 0.927 | 1 | 0.68 | 0.537 | 0.276 | 0.265 | 0.182 | 0.482 | 0.616 | 0.232 | 0.288 | 0.231 | 0.223 | 0.464 | 0.257
